≈ marks a conversion by molar mass, not a printed value.
Columns and labels:
Format in all cases: physicochemical
[1] = Solubility of crystalline forms in FaSSIF, FeSSIF and pure water (saturated solutions, HPLC); conditions: 37° C.; for Solubility in water: pure water
Description: The sample contents in saturated solutions were determined by high performance liquid chromatography (HPLC).

[2] = Compressibility of crystalline forms (manual tableting, hardness and tensile strength); conditions: for hardness (radial crushing force) / Tensile strength: tablet pressed at 10 KN; for hardness (radial crushing force): 24 hours in dryer; for Tensile strength: T=2H/πDL
Description: A manual tableting machine was used to perform the tableting. […] 10 KN pressure was applied to suppress into cylindrical tablets, which were placed in a dryer for 24 hours. After the complete elastic restoration, the tablets were tested with a tablet hardness meter for its radial crushing force (hardness, H). Diameter (D) and thickness (L) of the tablets were measured with a Vernier caliper, and the tensile strength of the powder under different hardness was calculated using the formula T=2H/πDL. Under a certain pressure, the higher the tensile strength was, the better the compressibility was.

[3] = Hygroscopicity by dynamic vapor sorption (DVS); conditions: 25° C.; for Weight gain at 80% RH: 80% relative humidity; for Weight gain at 95% RH: 95% relative humidity
Description: The dynamic vapor sorption diagrams of the present invention were collected on Intrinsic-type and Intrinsic Plus-type dynamic vapor sorption instruments of SMS company. The process parameters of the dynamic vapor sorption test of the present invention were as follows: Temperature: 25° C. Protection gas and its flow rate: N2, 200 mL/minute dm/dt: 0.002%/minute Minimum dm/dt equilibration time: 10 minutes Maximum Equilibration Time: 180 minutes Relative humidity range: 0% RH-95% RH-0% RH Relative humidity gradient: 10% (0% RH-90% RH-0% RH), 5% (90% RH-95% RH and 95% RH-90% RH). Each about 10 mg of Crystalline Form of the present invention and Crystalline Form A of WO2020/008391A was weighed for dynamic vapor sorption (DVS) test, and then sampled to measure XRPD. The experimental results were shown in Table 21, and the dynamic vapor sorption diagrams of Crystalline Forms A and E were shown in FIGS. 22-23 respectively.

[4] = Intrinsic dissolution rate; conditions: pH 6.8 Phosphate Buffer, 37° C., paddle 100 rpm, sheet 0.5 cm^2
Description: The intrinsic dissolution rate data of the present invention were collected on an Agilent 708DS-type dissolution apparatus of the Agilent company. The intrinsic dissolution test conditions were as follows.
An intact pressed sheet was transferred to the dissolution apparatus for testing the intrinsic dissolution rate, and the slope was calculated according to the measurement points between 10 and 30 minutes, expressed in mg/mL, and the intrinsic dissolution rate (IDR) was further calculated according to the slope, expressed in mg/min/cm^2. The dissolution rate of Crystalline Form E of the present invention was faster than that of Crystalline Form A of the prior art.

Solubility in FaSSIF ([1]; equilibrated 1 hour) [µg/mL] | Solubility in FaSSIF ([1]; equilibrated 2 hours) [µg/mL] | Solubility in FaSSIF ([1]; equilibrated 4 hours) [µg/mL] | Solubility in FeSSIF ([1]; equilibrated 1 hour) [µg/mL] | Solubility in FeSSIF ([1]; equilibrated 2 hours) [µg/mL] | Solubility in FeSSIF ([1]; equilibrated 4 hours) [µg/mL] | Solubility in water ([1]; equilibrated 1 hour) [µg/mL] | Solubility in water ([1]; equilibrated 2 hours) [µg/mL] | Solubility in water ([1]; equilibrated 4 hours) [µg/mL] | hardness (radial crushing force) [2] [N] | Tensile strength [2] [MPa] | Weight gain at 80% RH [3] [%] | Weight gain at 95% RH [3] [%] | solubility in FaSSIF, FeSSIF and pure water compared with Crystalline Form A [1] | dissolution rate (intrinsic) compared with Crystalline Form A [4] | Compound | tensile strength and compressibility compared with Crystalline Form A ([2]; 10 KN)
189 (≈ 584 µM) | 203.5 (≈ 629 µM) | 214.2 (≈ 662 µM) | 51.6 (≈ 160 µM) | 54.9 (≈ 170 µM) | 59.2 (≈ 183 µM) | 179.6 (≈ 555 µM) | 189.2 (≈ 585 µM) | 203 (≈ 628 µM) | – | – | – | – | – | – | CCCS(=O)(=O)N[C@H]1C[C@@H](N(C)c2ncnc3[nH]ccc23)C1 [Crystalline Form F] | –
72.3 (≈ 224 µM) | 78 (≈ 241 µM) | 76.1 (≈ 235 µM) | 9.4 (≈ 29.1 µM) | 9.4 (≈ 29.1 µM) | 9.6 (≈ 29.7 µM) | 64.3 (≈ 199 µM) | 74.7 (≈ 231 µM) | 72.3 (≈ 224 µM) | 17.01 | 1.805 | 0.09 | 0.27 | – | – | CCCS(=O)(=O)N[C@H]1C[C@@H](N(C)c2ncnc3[nH]ccc23)C1 [Crystalline Form A, reference compound] | –
153.8 (≈ 476 µM) | 164.5 (≈ 509 µM) | 169.4 (≈ 524 µM) | 38.4 (≈ 119 µM) | 39.2 (≈ 121 µM) | 44.1 (≈ 136 µM) | 114.7 (≈ 355 µM) | 138.6 (≈ 429 µM) | 156.2 (≈ 483 µM) | 17.20 | 2.607 | 0.11 | 0.19 | higher | faster | CCCS(=O)(=O)N[C@H]1C[C@@H](N(C)c2ncnc3[nH]ccc23)C1 [Crystalline Form E] | higher tensile strength and better compressibility

Source: patent publication US20230203040A1, “CRYSTALLINE FORMS OF A SULFONAMIDE COMPOUND AND PROCESSES FOR PREPARING THE SAME” (CRYSTAL PHARMATECH CO., LTD., priority 2020, published 2023)
